Patent US20220008445A1, “METHODS, COMPOSITIONS, AND KITS FOR TREATING OCULAR DISEASES” (ELOXX PHARMACEUTICALS, priority 2018, published 2022)

Key:
retina [1] = conditions: have been reported; cited from earlier work
retinal cultures = test: Cytotoxicity in retinal cultures (staining profile); type: cell-based
Method: The cytotoxicity of NB30, NB54, NB84, NB122, NB124, and NB127 was evaluated in retinal cultures.

retina [2] = conditions: for tolerability in gross ophthalmological examination and ERG compared to gentamicin: in vivo
Method: Biocompatibility and pharmacokinetic/pharmacodynamic profiles were evaluated for the aminoglycosides NB30, NB54/Compound 37, NB84/ELX-03, NB122/ELX-01, NB124/ELX-02, NB127/ELX-04, NB118/ELX-05, and NB128/ELX-06 in patient-derived cell lines and rodent animal models.
NB122 was well-tolerated compared to gentamicin in gross ophthalmological examination and ERG when administered by intravitreal injection.

[3] = tested on: USH1F nonsense mutations R3X and R245X; test: Cell-Free Read-through Assay; type: biochemical; conditions: FIG. 5A-B
Method: Cell-Free Read-through Assay. NB84 and NB127 were evaluated for their ability to induce read-through of the USH1F nonsense mutations R3X and R245X in a cell-free assay.

USH1 nonsense mutations = test: In vitro cell-based read-through assay in HEK293 cells; conditions: greater at higher concentrations, FIG. 6A-B
From the text: In Vitro Cell-Based Assay. NB84 and NB127 were next tested in an in vitro assay using HEK293 cells to determine if similar read-through activity could be achieved in a cellular environment.

USH2A mutation R626X = test: Plasmid-based dual-luciferase read-through assay in HeLa cells, USH2A; type: cell-based; conditions: for read-through of the USH2A mutation (in words): FIG. 7, FIG. 9; for dose-dependence of read-through induction, USH2A: FIG. 10
Method: (§1) An in vitro assay was then performed to determine if the same dose-dependent suppression could be achieved using other aminoglycosides. This in vitro assay utilized a plasmid-based, dual-luciferase approach. Short sequences that include Usher syndrome nonsense mutations were cloned into the linker region between Renilla and Firefly luciferase reporters, and plasmids were transiently transfected into HeLa cells to evaluate compound read-through. This model permits an early assessment of read-through potential against disease-specific mutations. Read-through activity was evaluated using USH2A and USH1F mutations.
(§2) NB122, NB124, NB84, NB127, NB118, NB128, NB124-MeS, and NB157 were evaluated for their ability to induce read-through on the USH2A mutation R626X and the USH1F PCDH15 mutation R3X.

[4] = tested on: USH1F PCDH15 mutation R3X; test: Plasmid-based dual-luciferase read-through assay in HeLa cells, USH1F; type: cell-based; conditions: for read-through of the USH1F mutation (in words): FIG. 8, FIG. 9; for dose-dependence of read-through induction, USH1F: FIG. 11
Method: as §1, §2

[5] = tested on: R213X nonsense mutation in human TP53; test: Protein Based Read-through Assay in DMS114 cells; type: cell-based; conditions: Western blot and immunofluorescence
Method: Protein Based Read-through Assay. NB122, NB124, NB84, NB118, and NB128 were evaluated for their protein-based read-through potential in DMS114 cells, which harbor a native R213X nonsense mutation in human TP53 as depicted in the scheme shown in FIG. 12. […] A high-throughput immunofluorescence assay measuring p53 localized at the nucleus is shown in FIG. 15 with dose-dependence studies for NB84. Lastly, FIG. 16 provides full dose response curves for NB122, NB124, NB84, NB118, and NB128 with the error bars representing a standard deviation (SD).

[6] = tested on: USH1C nonsense mutation R155X; test: Usher protein expression, USH1C nonsense mutation; type: cell-based; conditions: FIG. 17
Method: The ability of these compounds to induce protein expression of nonsense mutations associated with Usher syndrome was evaluated using USH1C nonsense mutations.

[7] = tested on: nonsense mutation R262X in the Oca2 gene; test: Read-through after intravitreal injection in albino mice (melanin production); type: in vivo, SJL/J mice; conditions: for in vivo read-through as compared to gentamicin: injection to the posterior segment (back of eye); for melanin production in the eye: intravitreal injection, FIGS. 20-21
Method: Read-through activity following intravitreal injection of aminoglycosides was evaluated in animal models.
Albino mice (SJL/J mice) harbor the nonsense mutation R262X in the Oca2 gene resulting in an absence of melanin production in melanocytes. This model provides an initial evaluation of compound availability to the back of the eye when administered by intravitreal injection—higher concentrations of melanin correspond to greater read-through activity.
NB122, NB124, NB124-MeS, NB84, NB118, NB127, NB128, and NB157 were evaluated for read-through activity following intravitreal injection into SJL/J mice. FIGS. 20-21 show intravitreal read-through for each compound relative to gentamicin.

[8] = tested on: healthy New Zealand white rabbits; test: Single-dose intravitreal tolerability, ERG and histology; type: in vivo
Method: Biocompatibility and pharmacokinetic/pharmacodynamic profiles were then evaluated for intravitreal injection of NB118 versus gentamicin. Single-dose tolerability was screened in healthy New Zealand white rabbits and evaluated based on ERG and histology. Dark-adapted oscillatory potential and photopic b-wave amplitudes were measured pre- and nine-days post a single 300 μg or 600 μg injection of aminoglycoside as shown in FIG. 2.
Results were confirmed by a veterinary pathologist.

[9] = Intravitreal pharmacokinetic profile, retina exposure; type: in vivo, Dutch-Belted rabbits; conditions: 100 μg intravitreal
Method: Pharmacokinetic profiles of NB124 were evaluated using healthy Dutch-Belted rabbits. Rabbits were injected with 100 μg of NB124 and followed for 192 hours. […] Overall, the results support a favorable therapeutic index for intravitreal administration of any of NB124.

[10] = intravitreal, human; cited from earlier work
[11] = nine days after single 300 μg or 600 μg intravitreal injection

CN[C@@H]1[C@@H](O)[C@@H](O[C@@H]2[C@@H](O)[C@H](O[C@H]3O[C@H]([C@@H](C)O)[C@@H](O)[C@H](O)[C@H]3N)[C@@H](N)C[C@H]2N)OC[C@]1(C)O [Compound G418, G418]
reported retinal toxicities (retina [1]): dose-limiting retinal toxicities

NCC[C@H](O)C(=O)N[C@@H]1CC(N)[C@@H](O[C@H]2OC(CO)[C@@H](O)[C@H](O)C2N)[C@H](O[C@@H]2O[C@H](CN)[C@H](O)C2O)C1O (stereo partly shown) [NB54]
staining profile versus untreated retinal cultures (retinal cultures): did not significantly differ

C[C@@H](O)C1O[C@H](O[C@@H]2C(N)C[C@@H](NC(=O)[C@@H](O)CCN)[C@@H](O)C2O[C@@H]2O[C@H](CN)[C@H](O)C2O)[C@@H](N)C(O)[C@@H]1O (stereo partly shown) [NB84]
in vivo ocular tolerance, intravitreal doses (retina [2]): up to 600 μg/mL
tolerability in gross ophthalmological examination and ERG compared to gentamicin (retina [2]): well-tolerated
read-through as compared to G418 and gentamicin [3]: significant read-through
read-through in cells (USH1 nonsense mutations): significant read-through
read-through of the USH2A mutation (in words) (USH2A mutation R626X): significant read-through
dose-dependence of read-through induction, USH2A (USH2A mutation R626X): dose-dependence
read-through of the USH1F mutation (in words) [4]: significant read-through
dose-dependence of read-through induction, USH1F [4]: dose-dependence
nonsense mutation read-through as measured by protein expression (full length p53) [5]: dose-dependent
protein expression versus gentamicin and vehicle control [6]: increased protein expression
in vivo read-through as compared to gentamicin [7]: significant read-through
melanin production in the eye [7]: dose-dependent increase

CC(N)C1OC(OC2C(O)C(N)CC(N)C2OC2OC(CO)C(O)C(O)C2N)C(O)C1O (stereo not shown) [NB118]
anatomic changes in retina, H&E stained sections ([8]; rabbit, in vivo): did not produce adverse anatomic changes
impact on ERG amplitudes or implicit times ([8]; rabbit, in vivo): minimal to no impact
in vivo ocular tolerance, intravitreal doses (retina [2]): up to 600 μg/mL
tolerability in gross ophthalmological examination and ERG compared to gentamicin (retina [2]): well-tolerated
read-through of the USH2A mutation (in words) (USH2A mutation R626X): significant read-through
dose-dependence of read-through induction, USH2A (USH2A mutation R626X): dose-dependence
read-through of the USH1F mutation (in words) [4]: significant read-through
dose-dependence of read-through induction, USH1F [4]: dose-dependence
nonsense mutation read-through as measured by protein expression (full length p53) [5]: dose-dependent
in vivo read-through as compared to gentamicin [7]: significant read-through
melanin production in the eye [7]: dose-dependent increase

CC(N)C1OC(OC2C(O)C(NC(=O)C(O)CCN)CC(N)C2OC2OC(CO)C(O)C(O)C2N)C(O)C1O (stereo not shown) [NB122]
in vivo ocular tolerance, intravitreal doses (retina [2]): up to 600 μg/mL
tolerability in gross ophthalmological examination and ERG compared to gentamicin (retina [2]): well-tolerated
dose-dependence of read-through induction, USH2A (USH2A mutation R626X): dose-dependence
dose-dependence of read-through induction, USH1F [4]: dose-dependence
R3X read-through rate ([4]; R3X): 2.7%
increase over native read-through ([4]; R3X): 2.5 fold
nonsense mutation read-through as measured by protein expression (full length p53) [5]: dose-dependent
protein expression versus gentamicin and vehicle control [6]: increased protein expression
in vivo read-through as compared to gentamicin [7]: significant read-through
melanin production in the eye [7]: dose-dependent increase

CC(N)C1OC(OC2C(O)C(NS(C)(=O)=O)CC(N)C2OC2OC(C(C)O)C(O)C(O)C2N)C(O)C1O (stereo not shown) [NB124-MeS]
tolerability in gross ophthalmological examination and ERG compared to gentamicin (retina [2]): well-tolerated
read-through of the USH2A mutation (in words) (USH2A mutation R626X): significant read-through
read-through of the USH1F mutation (in words) [4]: significant read-through
in vivo read-through as compared to gentamicin [7]: significant read-through
melanin production in the eye [7]: dose-dependent increase

C[C@H](N)[C@H]1O[C@@H](O[C@@H]2[C@@H](O)[C@H](N)C[C@H](N)[C@H]2O[C@H]2O[C@H]([C@@H](C)O)[C@@H](O)[C@H](O)[C@H]2N)[C@H](O)[C@@H]1O [NB124]
tolerability in gross ophthalmological examination and ERG compared to gentamicin (retina [2]): well-tolerated
time for which retina exposure covers the compound's IC50 [9]: over 48 hours
time of peak retina exposure ([9]; followed for 192 hours): 3 h
dose-dependence of read-through induction, USH2A (USH2A mutation R626X): dose-dependence
dose-dependence of read-through induction, USH1F [4]: dose-dependence
nonsense mutation read-through as measured by protein expression (full length p53) [5]: dose-dependent
protein expression versus gentamicin and vehicle control [6]: increased protein expression
in vivo read-through as compared to gentamicin [7]: significant read-through
melanin production in the eye [7]: dose-dependent increase

CC(N)C1OC(OC2C(O)C(NC(=O)C(O)CCN)CC(N)C2OC2OC(C(C)O)C(O)C(O)C2N)C(O)C1O (stereo not shown) [NB127]
tolerability in gross ophthalmological examination and ERG compared to gentamicin (retina [2]): well-tolerated
read-through as compared to G418 and gentamicin [3]: significant read-through
read-through in cells (USH1 nonsense mutations): significant read-through
read-through of the USH2A mutation (in words) (USH2A mutation R626X): significant read-through
read-through of the USH1F mutation (in words) [4]: significant read-through
protein expression versus gentamicin and vehicle control [6]: increased protein expression
in vivo read-through as compared to gentamicin [7]: significant read-through
melanin production in the eye [7]: dose-dependent increase

CC(N)C1OC(OC2C(O)C(NC(=O)C(O)CCN)CC(N)C2OC2OC(C(C)O)C(O)C(O)C2N)C(O)C1O (stereo not shown) [NB128]
tolerability in gross ophthalmological examination and ERG compared to gentamicin (retina [2]): well-tolerated
read-through of the USH2A mutation (in words) (USH2A mutation R626X): significant read-through
dose-dependence of read-through induction, USH2A (USH2A mutation R626X): dose-dependence
read-through of the USH1F mutation (in words) [4]: significant read-through
dose-dependence of read-through induction, USH1F [4]: dose-dependence
nonsense mutation read-through as measured by protein expression (full length p53) [5]: dose-dependent
in vivo read-through as compared to gentamicin [7]: significant read-through
melanin production in the eye [7]: dose-dependent increase

CCCNC1CC(N)C(OC2OC(C(C)O)C(O)C(O)C2N)C(OC2OC(CN)C(O)C2O)C1O (stereo not shown) [NB147]
tolerability in gross ophthalmological examination and ERG compared to gentamicin (retina [2]): well-tolerated
in vivo read-through as compared to gentamicin [7]: significant read-through

C[C@H](N)[C@H]1O[C@@H](O[C@@H]2C(O)[C@H](N)CC(N)[C@H]2O[C@H]2OC([C@H](O)CO)[C@@H](O)[C@H](O)C2N)C(O)[C@H]1O (stereo partly shown) [NB157]
read-through of the USH2A mutation (in words) (USH2A mutation R626X): significant read-through
read-through of the USH1F mutation (in words) [4]: significant read-through
melanin production in the eye [7]: dose-dependent increase

gentamicin [reference compound]
dark-adapted oscillatory potential peaks (ERG) [8, 11]: ablation
photopic b-wave potentials (ERG) [8, 11]: moderate reduction
melanin ([7]; 0.2 μg intravitreal, t-test vs. vehicle control): increases melanin
dose at which toxicity observed ([7]; intravitreal, pilot study FIG. 19): 0.5 µg
half-life [10]: 40 to 60 h
reported retinal toxicities (retina [1]): dose-limiting retinal toxicities
